According to ChEMBL document CHEMBL1201862, “PubChem BioAssay data set” (2004):
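Cells were grown in 96-well plates and exposed to each compound for 48 hours at five concentrations; endpoints were interpolated linearly between bracketing concentrations, or set to the highest concentration if not reached. At the GI50, growth is halved.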 Active and inactive are the calls of the source. Rule as the data show it: active = GI50 up to about 1.1 µM and inactive = higher.

Columns and labels:
Experiment in all cases: DTP human tumour cell line panel, 48 h
[1] = tested on: ACHN
[2] = tested on: HCT-15
[3] = tested on: PC-3
[4] = tested on: NCI-H23
[5] = tested on: HL-60
[6] = tested on: OVCAR-4
[7] = tested on: COLO 205
[8] = tested on: SK-MEL-2
[9] = tested on: MCF7
[10] = tested on: MDA-MB-231
[11] = tested on: NCI/ADR-RES
[12] = tested on: SF-295
[13] = tested on: SW-620
[14] = tested on: SN12C
[15] = tested on: KM12
[16] = tested on: BT-549
[17] = tested on: TK-10
[18] = tested on: UACC-257
[19] = tested on: SF-268
[20] = tested on: M14
[21] = tested on: LOX IMVI
[22] = tested on: T47D
[23] = tested on: DU-145
[24] = tested on: IGROV-1
[25] = tested on: U-251
[26] = tested on: UACC-62
[27] = tested on: EKVX
[28] = tested on: MDA-N
[29] = tested on: Hs-578T
[30] = tested on: NCI-H226
[31] = tested on: NCI-H460
[32] = tested on: HCT-116
[33] = tested on: A549
[34] = tested on: SK-MEL-28
[35] = tested on: RPMI-8226
[36] = tested on: HOP-92
[37] = tested on: K562
[38] = tested on: HT-29
[39] = tested on: A498
[40] = tested on: MDA-MB-435
[41] = tested on: OVCAR-3
[42] = tested on: CAKI-1
[43] = tested on: OVCAR-5
[44] = tested on: 786-0
[45] = tested on: UO-31
[46] = tested on: SNB-19
[47] = tested on: SK-MEL-5
[48] = tested on: NCI-H522
[49] = tested on: HOP-62
[50] = tested on: OVCAR-8
[51] = tested on: CCRF-CEM
[52] = tested on: SF-539
[53] = tested on: HCC 2998
[54] = tested on: MOLT-4
[55] = tested on: Malme-3M
[56] = tested on: SK-OV-3
[57] = tested on: SNB-75

For `COc1cc(NS(C)(=O)=O)ccc1Nc1cc(C)nc2ccc3[nH]ccc3c12`, which GI50 [1] is on record?
Its GI50 is > 100 µM (inactive).

What about the GI50 [2] of the same compound?
Its GI50 is over 100 µM.

What about the GI50 [3] of the same compound?
Its GI50 is > 100 µM (inactive).

And the GI50 [4]?
Its GI50 is > 100 µM (inactive).

What about the GI50 [5] of the same compound?
Its GI50 is > 100 µM (inactive).

What about the GI50 [6] of the same compound?
The GI50 was > 100 µM (inactive).

What about the GI50 [7] of the same compound?
Its GI50 is > 100 µM (inactive).

What about the GI50 [8] of the same compound?
The GI50 was > 100 µM (inactive).

And the GI50 [9]?
The GI50 was > 100 µM (inactive).

And the GI50 [10]?
The GI50 was > 100 µM (inactive).

What about the GI50 [11] of the same compound?
The GI50 was > 100 µM (inactive).

What about the GI50 [12] of the same compound?
Its GI50 is > 100 µM (inactive).

And the GI50 [13]?
Its GI50 is > 100 µM (inactive).

And the GI50 [14]?
Its GI50 is > 100 µM (inactive).

What about the GI50 [15] of the same compound?
Its GI50 is > 100 µM (inactive).

And the GI50 [16]?
Its GI50 is > 100 µM (inactive).

What about the GI50 [17] of the same compound?
Its GI50 is > 100 µM (inactive).

What about the GI50 [18] of the same compound?
Its GI50 is > 100 µM (inactive).

What about the GI50 [19] of the same compound?
The GI50 was > 100 µM (inactive).

And the GI50 [20]?
The GI50 was > 100 µM (inactive).

What about the GI50 [21] of the same compound?
The GI50 was > 100 µM (inactive).

And the GI50 [22]?
The GI50 was > 100 µM (inactive).

And the GI50 [23]?
Its GI50 is > 100 µM (inactive).

And the GI50 [24]?
Its GI50 is > 100 µM (inactive).

What about the GI50 [25] of the same compound?
Its GI50 is > 100 µM (inactive).

What about the GI50 [26] of the same compound?
Its GI50 is > 100 µM (inactive).

And the GI50 [27]?
The GI50 was > 100 µM (inactive).

What about the GI50 [28] of the same compound?
The GI50 was > 100 µM (inactive).

What about the GI50 [29] of the same compound?
Its GI50 is > 100 µM (inactive).

What about the GI50 [30] of the same compound?
The GI50 was > 100 µM (inactive).

And the GI50 [31]?
Its GI50 is > 100 µM (inactive).

What about the GI50 [32] of the same compound?
The GI50 was > 100 µM (inactive).

And the GI50 [33]?
The GI50 was > 100 µM (inactive).

What about the GI50 [34] of the same compound?
Its GI50 is > 100 µM (inactive).

And the GI50 [35]?
Its GI50 is > 100 µM (inactive).

And the GI50 [36]?
The GI50 was > 100 µM (inactive).

What about the GI50 [37] of the same compound?
The GI50 was > 100 µM (inactive).

And the GI50 [38]?
Its GI50 is > 100 µM (inactive).

And the GI50 [39]?
Its GI50 is > 100 µM (inactive).

What about the GI50 [40] of the same compound?
Its GI50 is > 100 µM (inactive).

What about the GI50 [41] of the same compound?
Its GI50 is > 100 µM (inactive).

What about the GI50 [42] of the same compound?
The GI50 was > 100 µM (inactive).

What about the GI50 [43] of the same compound?
Its GI50 is > 100 µM (inactive).

What about the GI50 [44] of the same compound?
Its GI50 is > 100 µM (inactive).

What about the GI50 [45] of the same compound?
The GI50 was > 100 µM (inactive).

What about the GI50 [46] of the same compound?
The GI50 was > 100 µM (inactive).

What about the GI50 [47] of the same compound?
Its GI50 is > 100 µM (inactive).

And the GI50 [48]?
The GI50 was 8.69 µM (inactive).

What about the GI50 [49] of the same compound?
The GI50 was > 100 µM (inactive).

What about the GI50 [50] of the same compound?
The GI50 was > 100 µM (inactive).

How did the GI50 [1] turn out when `Cc1cnc2c(c1)C(=O)N(c1ccc(Br)cc1)S2(=O)=O` was run?
The GI50 was > 100 µM (inactive).

And the GI50 [2]?
Its GI50 is over 100 µM.

And the GI50 [3]?
Its GI50 is > 100 µM (inactive).

And the GI50 [4]?
Its GI50 is > 100 µM (inactive).

And the GI50 [5]?
Its GI50 is 30.1 µM (inactive).

And the GI50 [6]?
The GI50 was 44.4 µM (inactive).

And the GI50 [51]?
Its GI50 is > 100 µM (inactive).

And the GI50 [7]?
The GI50 was > 100 µM (inactive).

What about the GI50 [8] of the same compound?
Its GI50 is > 100 µM (inactive).

What about the GI50 [52] of the same compound?
The GI50 was > 100 µM (inactive).

What about the GI50 [9] of the same compound?
Its GI50 is > 100 µM (inactive).

What about the GI50 [10] of the same compound?
The GI50 was > 100 µM (inactive).

And the GI50 [11]?
The GI50 was > 100 µM (inactive).

What about the GI50 [12] of the same compound?
Its GI50 is > 100 µM (inactive).

What about the GI50 [13] of the same compound?
The GI50 was > 100 µM (inactive).

And the GI50 [14]?
The GI50 was > 100 µM (inactive).

And the GI50 [15]?
The GI50 was > 100 µM (inactive).

And the GI50 [16]?
Its GI50 is > 100 µM (inactive).

What about the GI50 [17] of the same compound?
Its GI50 is > 100 µM (inactive).

And the GI50 [18]?
The GI50 was > 100 µM (inactive).

What about the GI50 [19] of the same compound?
The GI50 was 78.5 µM (inactive).

And the GI50 [20]?
The GI50 was > 100 µM (inactive).

And the GI50 [21]?
Its GI50 is > 100 µM (inactive).

What about the GI50 [22] of the same compound?
The GI50 was > 100 µM (inactive).

What about the GI50 [23] of the same compound?
The GI50 was > 100 µM (inactive).

And the GI50 [24]?
The GI50 was 56.1 µM (inactive).

What about the GI50 [25] of the same compound?
Its GI50 is > 100 µM (inactive).

And the GI50 [26]?
The GI50 was > 100 µM (inactive).

What about the GI50 [27] of the same compound?
Its GI50 is 35.6 µM (inactive).

What about the GI50 [28] of the same compound?
Its GI50 is > 100 µM (inactive).

What about the GI50 [53] of the same compound?
Its GI50 is > 100 µM (inactive).

And the GI50 [29]?
The GI50 was 24.5 µM (inactive).

What about the GI50 [30] of the same compound?
Its GI50 is 78 µM (inactive).

What about the GI50 [54] of the same compound?
Its GI50 is > 100 µM (inactive).

And the GI50 [31]?
The GI50 was > 100 µM (inactive).

What about the GI50 [32] of the same compound?
Its GI50 is > 100 µM (inactive).

And the GI50 [33]?
The GI50 was > 100 µM (inactive).

What about the GI50 [34] of the same compound?
Its GI50 is > 100 µM (inactive).

And the GI50 [35]?
Its GI50 is > 100 µM (inactive).

What about the GI50 [55] of the same compound?
Its GI50 is 35.6 µM (inactive).

What about the GI50 [38] of the same compound?
Its GI50 is > 100 µM (inactive).

And the GI50 [40]?
Its GI50 is > 100 µM (inactive).

What about the GI50 [41] of the same compound?
Its GI50 is > 100 µM (inactive).

And the GI50 [42]?
The GI50 was > 100 µM (inactive).

And the GI50 [43]?
Its GI50 is > 100 µM (inactive).

What about the GI50 [44] of the same compound?
The GI50 was > 100 µM (inactive).

And the GI50 [56]?
Its GI50 is > 100 µM (inactive).

And the GI50 [45]?
Its GI50 is > 100 µM (inactive).

And the GI50 [57]?
Its GI50 is 37.3 µM (inactive).

And the GI50 [46]?
Its GI50 is > 100 µM (inactive).

What about the GI50 [47] of the same compound?
Its GI50 is > 100 µM (inactive).

And the GI50 [48]?
Its GI50 is 19.5 µM (inactive).

And the GI50 [49]?
The GI50 was 50.5 µM (inactive).

What about the GI50 [50] of the same compound?
Its GI50 is > 100 µM (inactive).
